Assay results published in ChEMBL document CHEMBL5241101, “Plant isoquinoline alkaloids: Advances in the chemistry and biology of berberine” (Eur J Med Chem, 2021).

Legend:
[1] = system: K562; test: Cytotoxicity against human K562 cells assessed as cell growth inhibition incubated for 72 hrs by MTT assay; format: functional, cell-based; settings: K562, 72 h
[2] = system: A549; test: Cytotoxicity against human A549 cells assessed as cell growth inhibition incubated for 72 hrs by MTT assay; format: functional, cell-based; settings: A549, 72 h
[3] = system: COLO 201; test: Cytotoxicity against human COLO201 cells assessed as cell growth inhibition incubated for 48 hrs by WST-1 assay; format: functional, cell-based; settings: COLO 201, 48 h
[4] = system: Jurkat; test: Cytotoxicity against human Jurkat cells assessed as cell growth inhibition incubated for 48 hrs by WST-1 assay; format: functional, cell-based
[5] = system: HT-29; test: Cytotoxicity against human HT-29 cells assessed as cell growth inhibition incubated for 48 hrs by WST-1 assay; format: functional, cell-based; settings: HT-29, 48 h
[6] = system: MCF7; test: Cytotoxicity against human MCF7 cells assessed as cell growth inhibition incubated for 48 hrs by WST-1 assay; format: functional, cell-based; settings: MCF7, 48 h
[7] = system: BT-549; test: Cytotoxicity against human BT-549 cells assessed as cell growth inhibition incubated for 48 hrs by WST-1 assay; format: functional, cell-based; settings: BT-549, 48 h
[8] = system: HL-60; test: Cytotoxicity against human HL-60 cells assessed as cell growth inhibition incubated for 48 hrs by WST-1 assay; format: functional, cell-based; settings: HL-60, 48 h
[9] = system: A549; test: Cytotoxicity against human A549 cells assessed as cell growth inhibition incubated for 48 hrs by WST-1 assay; format: functional, cell-based; settings: A549, 48 h
[10] = system: A2780; test: Cytotoxicity against human A2780 cells assessed as cell growth inhibition incubated for 48 hrs by WST-1 assay; format: functional, cell-based; settings: A2780, 48 h
[11] = system: AGS; test: Cytotoxicity against human AGS cells assessed as cell growth inhibition incubated for 48 hrs by WST-1 assay; format: functional, cell-based
[12] = system: Plasmodium falciparum; test: Antimalarial activity against chloroquine sensitive Plasmodium falciparum NF54 assessed as inhibition of parasite growth incubated for 72 hrs by [3H]-hypoxanthine incorporation assay based liquid scintillation counter; format: functional, organism-based
[13] = system: Plasmodium falciparum; test: Antimalarial activity against chloroquine resistant Plasmodium falciparum K1 assessed as inhibition of parasite growth incubated for 72 hrs by [3H]-hypoxanthine incorporation assay based liquid scintillation counter; format: functional, organism-based
[14] = Toxicity in Sprague-Dawley rat assessed as NOAEL by po administrated gestational day upto 20 days; format: organism-based; settings: in vivo, time < 20 day
[15] = Oral bioavailability in Wistar rat at 100 mg/kg by UPLC-MS/MS analysis; format: ADME, organism-based; settings: in vivo
[16] = Toxicity in Sprague-Dawley rat assessed as LOAEL by po administrated gestational day upto 20 days; format: organism-based; settings: in vivo, 480 h, time < 20 day
[17] = system: HaCaT; test: Induction of DNA damage in human HaCaT cells assessed as fold change at 50 uM in presence of UV radiation by comet assay; format: toxicity, cell-based
[18] = system: HaCaT; test: Cytotoxicity against human HaCaT cells assessed as decrease in cell viability at 50 uM incubated for 1 hr in presence of UV radiation by CellTiter-96 assay; format: toxicity, cell-based
[19] = system: Jurkat; test: Cytotoxicity against human Jurkat cells assessed as cell growth inhibition incubated for 48 hrs by XTT assay; format: functional, cell-based
[20] = system: MOLT-4; test: Cytotoxicity against human MOLT-4 cells assessed as cell growth inhibition incubated for 48 hrs by XTT assay; format: functional, cell-based; settings: MOLT-4, 48 h
[21] = system: HL-60; test: Cytotoxicity against human HL-60 cells assessed as cell growth inhibition incubated for 48 hrs by XTT assay; format: functional, cell-based; settings: HL-60, 48 h
[22] = system: HL-60; test: Antiproliferative activity against human HL-60 cells incubated for 96 hrs by MTT assay; format: functional, cell-based; settings: HL-60, 96 h
[23] = system: Caco-2; test: Antiproliferative activity against human Caco-2 cells incubated for 96 hrs by MTT assay; format: functional, cell-based; settings: Caco-2, 96 h

## O[C@@H]1CCCN2[C@@H](CC1)C[C@]13CN4CCCC/C=C\CC[C@](O)(C=C(c5nccc6c5[nH]c5ccccc56)[C@@H]1CC4)[C@H]23 [32,33-DIHYDRO-31-HYDROXYMANZAMINE A]
[1]
  IC50: 5200 nM
[2]
  IC50: 5800 nM

## O[C@H]1[C@H]2c3cc4c(cc3CN3CCC(=C[C@@H]1O)[C@H]23)OCO4 [LYCORINE]
[3]
  IC50: 300 nM
[4]
  IC50: 300 nM
[5]
  IC50: 300 nM
[6]
  IC50: 300 nM
[7]
  IC50: 300 nM
[8]
  IC50: 300 nM
[9]
  IC50: 300 nM
[10]
  IC50: 300 nM
[11]
  IC50: 300 nM

## O[C@H]1/C=C\[C@H]2C[C@]34CN5CCCC/C=C\CC[C@](O)(C=C(c6nccc7c6[nH]c6ccccc67)[C@@H]3CC5)[C@@H]4N2CCC1
[1]
  IC50: 5200 nM
[2]
  IC50: 5800 nM

## COc1cc(O)c(-c2cc(-c3cc(-c4c(O)cc5c(c4OC)[C@@H](C)N[C@H](C)C5)c4cc(C)cc(OC)c4c3O)c(O)c3c(OC)cc(C)cc23)c2c1[C@H](C)N[C@H](C)C2
[12]
  IC50: 418 nM
[13]
  IC50: 452 nM

## COc1ccc2cc3[n+](cc2c1OC)CCc1cc2c(cc1-3)OCO2 [BERBERINE]
[14]
  NOAEL at 480 h: 420 mg/kg
[15]
  bioavailability: 0.36%
[16]
  LOAEL: 1313 mg/kg
[17]
  fold change (FC): 3
[18]
  Activity: 80%

## O[C@]12C=C(c3nccc4c3[nH]c3ccccc34)[C@@H]3CCN(CCCC/C=C\CC1)C[C@@]31C[C@@]34CC[C@@H](CCCN3[C@H]12)O4
[1]
  IC50: 5200 nM
[2]
  IC50: 5800 nM

## C1=C\CC[C@]23CN4CCCC/C=C\CC[C@@]5(O[C@H]5[C@@H](c5nccc6c5[nH]c5ccccc56)[C@@H]2CC4)[C@@H]3NCCCC/1 [MANZAMINE B]
[1]
  IC50: 5200 nM
[2]
  IC50: 5800 nM

## COc1cc(O)c(-c2cc(-c3cc(-c4c(O)cc5c(c4OC)[C@H](C)N[C@H](C)C5)c4cc(C)cc(OC)c4c3O)c(O)c3c(OC)cc(C)cc23)c2c1[C@@H](C)N[C@H](C)C2
[12]
  IC50: 210 nM
[13]
  IC50: 138 nM

## O[C@]12C=C(c3nccc4c3[nH]c3ccccc34)[C@@H]3CCN(CCCC/C=C\CC1)C[C@@]31C[C@@H]3C=C[C@H]4CCC[N@+]43[C@H]12
[1]
  IC50: 5200 nM
[2]
  IC50: 5800 nM

## CO[C@@H]1C=C[C@@]23c4cc5c(cc4CN(C[C@@H]2O)[C@H]3C1)OCO5 [(+)-HAEMANTHAMINE]
[3]
  IC50: 300 nM
[4]
  IC50: 300 nM
[5]
  IC50: 300 nM
[6]
  IC50: 300 nM
[7]
  IC50: 300 nM
[8]
  IC50: 300 nM
[9]
  IC50: 300 nM
[10]
  IC50: 300 nM
[11]
  IC50: 300 nM

## CO[C@@H]1C=C[C@@]23c4cc5c(cc4[C@H](O)N(C[C@@H]2O)[C@H]3C1)OCO5
[3]
  IC50: 300 nM
[4]
  IC50: 300 nM
[5]
  IC50: 300 nM
[6]
  IC50: 300 nM
[7]
  IC50: 300 nM
[8]
  IC50: 300 nM
[9]
  IC50: 300 nM
[10]
  IC50: 300 nM
[11]
  IC50: 300 nM

## [O-][N+]1=C([C@H]2[C@@H]3CCN4CCCC/C=C\CC[C@@]5(O[C@@H]25)[C@@H]2NCCCC/C=C\CC[C@@]23C4)c2[nH]c3ccccc3c2CC1
[1]
  IC50: 5200 nM
[2]
  IC50: 5800 nM

## CN1Cc2c(ccc3c2OCO3)[C@@H]2[C@H]1c1cc3c(cc1C[C@@H]2O)OCO3 [CHELIDONINE]
[19]
  IC50: 2200 nM
[20]
  IC50: 2200 nM
[21]
  IC50: 2200 nM

## [O-][n+]1ccc2c([nH]c3ccccc32)c1[C@H]1[C@@H]2CCN3CCCC/C=C\CC[C@@]4(O[C@@H]14)[C@@H]1NCCCC/C=C\CC[C@@]12C3
[1]
  IC50: 5200 nM
[2]
  IC50: 5800 nM

## O[C@]12C=C(c3nccc4c3[nH]c3ccccc34)[C@@H]3CCN(CCCC/C=C\CC1)C[C@@]31C[C@@H]3/C=C\CCCCN3[C@H]12 [MANZAMINE A]
[1]
  IC50: 5200 nM
[2]
  IC50: 5800 nM

## COc1cc(O)c(-c2cc(-c3cc(-c4c(O)cc5c(c4OC)[C@H](C)N[C@H](C)C5)c4cc(C)cc(OC)c4c3O)c(O)c3c(OC)cc(C)cc23)c2c1[C@H](C)N[C@H](C)C2
[12]
  IC50: 34 nM

## O[C@H]1[C@@H](c2nccc3c2[nH]c2ccccc23)[C@@H]2CCN3CCCC/C=C\CC[C@@]1(O)[C@@H]1NCCCC/C=C\CC[C@]21C3
[1]
  IC50: 5200 nM
[2]
  IC50: 5800 nM

## COc1ccc2c(c1OC)CN(C)[C@@H]1c3cc4c(cc3C[C@H](O)[C@H]21)OCO4
[19]
  IC50: 4800 nM
[20]
  IC50: 4800 nM
[21]
  IC50: 4800 nM

## COC(=O)c1ccc(OC)c(OC)c1NC(=O)c1cc(C/C=C(\C)c2c3[n+](cc4c(OC)c(OC)ccc24)CCc2cc4c(cc2-3)OCO4)c2c(c1)OCO2
[22]
  IC50: 10200 nM
[23]
  IC50: 9240 nM
